Columns and labels:
Type in all cases: cell-based, human
[1] = system: sterol regulatory element-binding protein 1 (SREBP1); assay: Gene expression, real-time PCR; settings: HepG2 + 0.25 mM OA, 200 and 400 μM compound, 24 h, normalized to GAPDH
Method: (§1) To better understand how the supplementation of compounds 2 and 4 during LDA in HepG2 cells affects lipolysis and lipogenesis, we performed gene expression analysis using real-time PCR under the following conditions. Briefly, HepG2 cells (2.0 × 10^5/well) were seeded in 24-well plates (n = 6 per treatment). After 24 h, the cells were treated with PBS, 0.25 mM OA only, 0.25 mM OA plus 200 and 400 μM compound 2, or 0.25 mM OA plus 200 and 400 μM compound 4. After another 24 h, RNA extraction and complementary DNA synthesis were performed, according to the manufacturer’s instructions and a previous study. The sequences of the primers used are shown in the Supplementary Materials, Table S1: adipose triglyceride lipase (ATGL), diacylglycerol O-acyltransferase 1 (DGAT1), sterol regulatory element-binding protein 1 (SREBP1), fatty acid synthase (FASN), stearoyl-CoA desaturase 1 (SCD1), and glyceraldehyde-3-phosphate dehydrogenase (GAPDH). PCR was performed using a CFX 96 Real-Time PCR Detection System (Bio-Rad Laboratories Inc., Hercules, CA, USA) under the following conditions: 95 °C for 30 s, followed by 40 cycles at 95 °C for 5 s, 60 °C for 5 s, and 72 °C for 10 s. All gene expression levels were analyzed using the ΔΔCt method and normalized to GAPDH. Data were represented as relative expression based on that of the control group.

[2] = system: diacylglycerol O-acyltransferase 1 (DGAT1); assay: Gene expression, real-time PCR; settings: HepG2 + 0.25 mM OA, 200 and 400 μM compound, 24 h, normalized to GAPDH
Method: as §1

[3] = system: fatty acid synthase (FASN); assay: Gene expression, real-time PCR; settings: HepG2 + 0.25 mM OA, 200 and 400 μM compound, 24 h, normalized to GAPDH
Method: as §1

[4] = system: adipose triglyceride lipase (ATGL); assay: Gene expression, real-time PCR; settings: HepG2 + 0.25 mM OA, 200 and 400 μM compound, 24 h, normalized to GAPDH
Method: as §1

[5] = system: stearoyl-CoA desaturase 1 (SCD1); assay: Gene expression, real-time PCR; settings: HepG2 + 0.25 mM OA, 200 and 400 μM compound, 24 h, normalized to GAPDH
Method: as §1

[6] = system: HepG2 cells; assay: Accumulated triacylglycerol species by LC-MS/MS in oleic acid-loaded cells; settings: for Number of accumulated triacylglycerol molecular species inhibited: 24 h of treatment; for inhibition at 200 µM: Homo sapiens, HepG2, 24 h
Method: Tested compounds (200 μM) were added to cultured HepG2 cells loaded with oleic acid and incubated at 37 °C for 24 h, as previously described. Centrifuged samples were analyzed using an LC/MS orbitrap. Chromatographic separation was performed using a Shimadzu Prominence UHPLC system with a binary solvent delivery system and a standard auto-sampler. An Atlantis® T3 column (2.1 × 150 mm, 3 μm, Waters) was used for separation, with a flow rate of 200 μL/min. The mobile phase consisted of A: 10 mM ammonium acetate solution; B: isopropanol; and C: methanol. Positive mode: 0–1 min, 6% B and 90% C; 1–10 min, 83% B and 15% C; 10–19 min, 83% B and 15% C; 19–19.5 min, 6% B and 90% C; 19.5–22 min, 6% B and 90% C. The injection volume was 10 μL. The column temperature was maintained at 40 °C. The LC/MS parameters were as previously described.

[7] = system: HepG2 cells; assay: Lipid droplet accumulation inhibition (LDAI) assay, Oil Red O, oleic acid-loaded cells; settings: HepG2 + 0.25 mM oleic acid, vs untreated control (+OA)
Method: LDAI assay: LDAI activity was determined using an Oil Red O assay with 24-well plates (n = 4 per treatment). Staining of LDs in cultured hepatocytes was performed according to the manufacturer’s instructions, based on the Oil Red O staining assay. Briefly, HepG2 cells (1.5 × 10^4/well) were supplemented with 10% FBS, cultured, seeded in 35-mm dishes, and treated with the tested samples after 24 h. Oil Red O, a fat-soluble dye, is widely used for staining neutral lipids in LDs, as described in the Supplementary Materials. […]
2 1.2. Cytotoxicity assay dropwise under ice-cooling. […]
Lipid droplet accumulation inhibition assay and Real-Ti me LDAI acid tryptophan (9) and compound 12 were subjected to acid conversion at 90 °C accumulation in acetic acid to obtain compound 2 (1H and 13C, see in Supporting Information). Lipid droplet accumulation inhibition (LDAI) activity was determined using an Synthesis of Compound 4. To a stirred soln . compound 3 in MeOH was added oilred assay in a 24-well plate according to the manufacturer ’sinstructions (n = 4 with NaOH (2 mol/L). Compound 4 was obtained after stirringthe mixture at 65℃ per each treatment). Real-time oleic induced-LD inhibition was performed by for 5 h. (1H and 13C, see Figures S10 and S11). We also prepared similar using a Nikkon microscope. Morphological analysis of HepG2 cells after compounds without any substituent at the C-1 position in the C-ring using a one- treatment with control(-OA) and (+OA) or compound at different concentrations pot Pictet–Spengler reaction (6-8). was determined by staining with AO/EB.
Synthetic b-carboline alkaloids (1-8): 1.4. Oil Red O Staining.
CAS Registry Number of all the series of synthetic b-carboline alkaloids (1-8) HepG2 cells were cultured and treated in 35 mm dishes, as described above. were subjected to biological evaluation: 1H-Pyrido[3,4-b]indole-3-carboxylic acid, Oil Red O dye was used for LD staining. Oil Red O was dissolved in isopropanol 1-[5-[(acetyloxy)methyl]-2-furanyl]-2,3,4,9-tetrahydro-, methyl ester, (1S-trans)- as 3 mg/mL and diluted with water so that isopropanol became 60%. Oil Red O (9CI) (1,CAS Registry Number 11 5 1 0 7-75-0;11 5 1 0 7-76-1);2,3,4,9-Tetrahydro-1-solutionwasfilteredbya0.4 μm pore syringe filter.For cellular staining, the […]

[8] = system: HepG2 cells; assay: LD fluorescence staining assay (Oil Red O / Hoechst); settings: 200 μM, HepG2 loaded with OA, Oil Red O and Hoechst 33,342
Method: LD fluorescence staining assay: The staining was performed with modifications based on our previous report. HepG2 cells were seeded in 35 mm glass bottom dishes at 4.0 × 10^5/plate. After 24 h of incubation, OA and all samples were processed for 24 h. Oil Red O staining was performed, then the Hoechst reagent solution mixed with PBS was added and incubated in the dark for 25 min. Images were then captured using a BZ-9000 fluorescence microscope (Keyence Co., Ltd., Osaka, Japan).

[9] = 24 h, HepG2 + OA, vs control (+OA), read-out: Inhibition of accumulated TAG 48:4
[10] = 24 h, HepG2 + OA, vs control (+OA), read-out: Inhibition of accumulated TAG 50:3
[11] = 24 h, HepG2 + OA, vs control (+OA), read-out: Inhibition of accumulated TAG 50:5
[12] = 24 h, HepG2 + OA, vs control (+OA), read-out: Inhibition of accumulated TAG 52:4
[13] = 24 h, HepG2 + OA, vs control (+OA), read-out: Inhibition of accumulated TAG 52:5
[14] = 24 h, HepG2 + OA, vs control (+OA), read-out: Inhibition of accumulated TAG 52:6
[15] = 24 h, HepG2 + OA, vs control (+OA), read-out: Inhibition of accumulated TAG 52.7
[16] = 24 h, HepG2 + OA, vs control (+OA), read-out: Inhibition of accumulated TAG 54:7
[17] = 24 h, HepG2 + OA, vs control (+OA), read-out: Inhibition of accumulated TAG 56.9

Compound | SREBP1 gene expression [1] | DGAT1 gene expression [2] | FASN gene expression [3] | ATGL gene expression [4] | SCD1 gene expression [5] | Number of accumulated triacylglycerol molecular species inhibited ([6]; 200 μM, HepG2 + OA) | inhibition at 200 µM [6, 9] | inhibition at 200 µM [6, 10] | inhibition at 200 µM [6, 11] | inhibition at 200 µM [6, 12] | inhibition at 200 µM [6, 13] | inhibition at 200 µM [6, 14] | inhibition at 200 µM [6, 15] | inhibition at 200 µM [6, 16] | inhibition at 200 µM [6, 17] | inhibition at 200 µM ([7]; Homo sapiens, HepG2, 24 h) | inhibition at 400 µM ([7]; Homo sapiens, HepG2, 24 h) | LDs in fluorescence image [8] | also measured
O=C(O)C1Cc2c([nH]c3ccccc23)C(c2ccc(CO)o2)N1 (stereo not shown) [Compound 2, 1,2,3,4-tetrahydro-1-(5-(hydroxymethyl)-2-furanyl)-9H-pyrido [3,4-b]indole-3-carboxylic acid] | significantly downregulated | no change | significantly downregulated | upregulated | did not induce a significant reduction | twenty-five | 23.4% | 26.6% | 33.7% | 28.1% | 9.5% | 33.4% | 35.1% | 30% | 28.3% | 29.1% | 74% | significantly inhibited | inhibition at 200 µM ([6]; 24 h, HepG2 + OA, vs control (+OA), read-out: Inhibition of accumulated TAG 56:10): 45.9%; inhibition at 200 µM ([6]; 24 h, HepG2 + OA, vs control (+OA), read-out: Inhibition of accumulated TAG 58:12): 50 to 74%; inhibition at 200 µM ([6]; 24 h, except TAGs 58:12, 46:3, 54:6, and 56:7, read-out: Inhibition of most of the accumulated triacylglycerol molecular species): 25 to 49%; inhibition at 100 µM ([7]; Homo sapiens, HepG2, 24 h, 100 μM): 25.5%
O=C(O)c1cc2c([nH]c3ccccc32)c(-c2ccc(CO)o2)n1 [Compound 4, flazin] | strongly downregulated | no change | strongly downregulated | upregulated | strongly downregulated | twenty | 39% | 49.4% | 72.5% | 51.2% | 49.1% | 65.7% | 70.7% | 66.3% | 71.4% | 20% | 77.5% | significantly inhibited | Inhibition of TAGs 52:6; 52:7; 56:10; 56:9; and 62:4 (in words) ([6]; 200 μM, 24 h, HepG2 + OA): total inhibition; inhibition at 200 µM ([6]; 24 h, HepG2 + OA, vs control (+OA), read-out: Inhibition of accumulated TAG 46:3): 28.9%; inhibition at 200 µM ([6]; 24 h, HepG2 + OA, vs control (+OA), read-out: Inhibition of accumulated TAG 54:6): 49.4%; inhibition at 200 µM ([6]; 24 h, HepG2 + OA, vs control (+OA), read-out: Inhibition of accumulated TAG 56:7): 49.1%; inhibition at 200 µM ([6]; 24 h, HepG2 + OA, vs control (+OA), read-out: Inhibition of accumulated TAG 56:8): 58.1%; inhibition at 200 µM ([6]; 24 h, HepG2 + OA, vs control (+OA), read-out: Inhibition of accumulated TAG 58:11): 65.2%; inhibition at 200 µM ([6]; 24 h, HepG2 + OA, vs control (+OA), read-out: Inhibition of accumulated TAG 60:12): 66.4%; inhibition at 200 µM ([6]; 24 h, HepG2 + OA, vs control (+OA), read-out: Inhibition of accumulated TAG 62:14): 76.4%; LDAI ([7]; 100 μM, 24 h): ns
